Measured values from patent US20210196816A1, “ALGAE COMPRISING THERAPEUTIC AND/OR NUTRITIONAL AGENTS” (TomAlgae CVBA, priority 2016, published 2021).

How the values were obtained:
[1] = test system: algae cells; test: Loading of algae with astaxanthin, microscopic examination; set-up: species or system Cyclotella meneghiniana; conditions: over 24 hours
Method: A rehydration composition was prepared by adding 1 g of synthetic astaxanthin to 200 ml of fresh, potable water, then microwaving 3 times for 1 min each time.
The algae were then rehydrated by blending the astaxanthin solution (suspension) together with 1 litre of potable water and 200 mg of the algae powder for 2 minutes.
Astaxanthin particles were able to penetrate inside algae cells and were also absorbed by the porous surface of the siliceous exoskeleton (frustule).

[2] = test system: algae cells; test: Loading of freeze-dried algae with vitamin C by rehydration; vitamin C in algal cells by HPLC-DAD; set-up: species or system Cyclotella meneghiniana; conditions: rehydration in 5 g/L vitamin C; incubation at 28° C.
Method: A rehydration composition was prepared by dissolving 500 mg per litre vitamin C in filtered natural (North Sea) seawater (20° C.). A second rehydration composition was prepared by dissolving 5 g per litre vitamin C in the seawater. As a control, a third rehydration composition consisted of just the clean seawater without any vitamin C added.
The algae were then rehydrated by adding one of the rehydration compositions to a standard kitchen blender (Kenwood KM230, 650 W, with blender attachment). The blender was switched on at a moderate mixing speed (speed 4) to agitate the rehydration composition. Then 10 g per litre of freeze-dried algae was added to the rehydration composition while mixing, and the freeze-dried algae was allowed to blend into the rehydration composition for 2 minutes. Cell integrity after rehydration was verified using a microscope.
Each of the three rehydration compositions comprising rehydrated algae were split into six replicates. Three replicates of each composition were harvested immediately after rehydration. The remaining three replicates of the treatment groups were incubated in a water bath at 28° C. and provided with moderate aeration. […]
The concentration of vitamin C in the algal cells of the treatment groups and control at the different time points were then analysed by high-performance liquid chromatography with Diode-Array Detection.

Row | stability of association of astaxanthin particles within algae cells [1] | time for which the vitamin C level in the algae cells was maintained [2] [h] | Structure (SMILES)
1 | remained stable | – | CC1=C(/C=C/C(C)=C/C=C/C(C)=C/C=C/C=C(C)/C=C/C=C(C)/C=C/C2=C(C)C(=O)[C@@H](O)CC2(C)C)C(C)(C)C[C@H](O)C1=O [astaxanthin]
2 | – | ≥ 6 | O=C1O[C@H]([C@@H](O)CO)C(O)=C1O [vitamin C]
